What was measured:
[1] = Evaluation of the concentration of topical ophthalmic somatostatin in the retina (Western blot); format: in vivo, C57BL/6 mice; conditions: eye drops of example 1, 1 drop of 5 μL twice a day for 5 days in right eye vs placebo in left eye; 2 hours after last dosage; Western blot densitometry
Experimental: Eight-week old C57BL/6 mice were used. The handling and care of the animals was carried out following the Institut de Recerca del Hospital Universitari Vall d'Hebron protocol and the European Economic Community and A.R.V.O. (Association for Research in Vision and Opthalmology) international guidelines (order 86/609/CEE). The animals were kept in individual cages in the animal facilities at a controlled temperature (20°) and humidity (60%), under constant cycles of light-darkness which last 12 hours and had free access to food and drink. The eye drops of somatostatin-14 from example 1 (1 drop of 5 μL) were administered to the right eye and the placebo (saline solution) to the left eye. Two drops were administered per day, one in the morning and another in the evening, for 5 days. The animals were euthanized by cervical dislocation under anesthetic 2 hours after the last dosage. Immediately afterwards the eyeballs were extracted and were frozen at −80° until handling. […] The quantity of somatostatin-14 in the retina was determined by Western blot. […] A densitometric analysis was carried out (Densitometer GS-800. Bio-Rad. Laboratories, Hercules, Calif., USA) and the results are expressed as arbitrary units. […] On control mice, who received the placebo in both eyes, no differences were detected in the concentration of somatostatin between both eyes.

[2] = system: streptozotocin-induced diabetic rats; experiment: Electroretinography after topical ocular treatment in diabetic rats; format: in vivo, Sprague Dawley rats; parameters: implicit time of the b-wave at 0 db compared to pretreatment: unit not given beside the values; conditions: for difference between the amplitude of the second OP (OP2) of the b-wave at 0 db / implicit time of the b-wave at 0 db compared to pretreatment: STZ 60 mg/kg rats; for difference between the amplitude of the second OP (OP2) of the b-wave at 0 db: FIG. 2; for implicit time of the b-wave at 0 db compared to pretreatment: after 14 days of treatment; for b-wave amplitude at −10 db and 0 db / b-wave amplitude at −30 db: compared to the diabetic group
Experimental: (§1) Streptozotocin (STZ), 60 mg/Kg, was administered to Sprague Dawley rats. The animals were divided in four groups as detailed in Table 1:
(§2) Two days after STZ was administered, animals were treated daily with one or two drops of vehicle (Group 2), eye drops of example 4 (Group 3) or eye drops of example 5 (Group 4) for additionally 14 days. Healthy control animals were only treated daily with one or two drops of vehicle (Group 1).
Electroretinography is a technique used clinically to evaluate retinal function in diabetic retinopathy. Several parameters can be affected in early stages of the disease: implicit time, amplitude and oscillatory potentials [Tzekov et al., Survey of Ophthalmology, 1999, 44(1): 53-60]. The increment of the implicit time and diminishment of amplitude of the oscillatory potentials (OPs) are also observed in streptozotocin-induced diabetic rats [Hancok et al., Investigative Ophthalmology & Visual Science, 2004, 45(3): 1002-1008].

[3] = system: Glial Fibrillar Protein (GFAP); experiment: Glial activation by GFAP immunofluorescence (confocal microscopy) in retina of diabetic rats; format: in vivo, Sprague Dawley rats; conditions: for glial cell activation (GFAP expression, confocal images): day 14, ganglion cell layer, FIG. 3; for GFAP fluorescence value: day 14, normalized to the analysed area (21705.33 μm^2), diabetic Group 2 6871±159, healthy Group 1 2095±26
Experimental: as §1, §2
(§3) On day 14, the animals were sacrificed and ocular tissues paraffined. Glial activation and number of apoptotic cells were evaluated as markers of the first step in the development of diabetic retinopathy: retinal neurodegeneration [Carrasco et al., Diabetes Care; 2007, 30(11): 1-7].
Glial activation was determined analysing Glial Fibrillar Protein (GFAP) immunofluorescence by confocal microscopy. Ocular sections of 7 μm thickness were fixed on high adherent coverslips (Visionbiosystems, Newcastle Upon Tyne, UK). They were desparaffined, rehydrated and washed in phosphate buffer saline (PBS). Unspecific unions were blocked incubating the samples for 1 h in PBS 1% BSA (Bovine Serum Albumin) 0.5% Triton X-100. Thereafter, the primary rabbit anti-human GFAP antibody (Sigma, Madrid, Spain) diluted in the blocking buffer (1:100) was incubated for 36 h at 4° C. After three washings for 5 min with PBS, sections were incubated with a secondary antibody anti […] labelled with Alexa Fluor® 488 (Invitrogen, Eugene, Oreg.) for 1 h at room temperature. Labelled sections were washed and mounted with fluorescent medium containing 4,6-diamidino-2-phenylindole (DAPI) for staining cell nuclei (Vector Laboratories, Burlingame, Calif.). The sections positives for GFAP were captured in a confocal microscope (FV1000, Olympus. Hamburg, Germany) obtaining optical sections with a 488 nm laser for Alexa 488 and a 405 nm laser for DAPI. GFAP fluorescence was quantified in each image with the Fluoview ASW 1.4 software (Olympus, Hamburg, Germany). Results were normalized to the analysed area (21705.33 μm^2).

[4] = system: retinal cells of streptozotocin-induced diabetic rats; experiment: Degree of apoptosis of the retina by TUNEL in diabetic rats; format: in vivo, Sprague Dawley rats; conditions: for retinal degeneration (TUNEL positive cells, confocal images): after 14 days of treatment, FIG. 4; for % Apoptotic cells GCL: ganglion cell layer; for % Apoptotic cells GCL / % Apoptotic cells INL / % Apoptotic cells ONL / % Apoptotic cells RPE: 14 days of treatment; for % Apoptotic cells INL: inner nuclear layer; for % Apoptotic cells ONL: outer nuclear layer; for % Apoptotic cells RPE: retinal pigment epithelium
Experimental: as §1, §2, §3
The evaluation of the degree of apoptosis of the retina after 14 days of treatment was done by using the TUNEL (“Terminal Transferase dUTP Nick-End Labeling”) technique. The In Situ Cell Death Detection Kit (Roche Diagnostics, Mannheim, Germany) was used. Ocular sections were desparaffined, rehydrated and washed in PBS. Three confocal images (40×) corresponding to a 317.13 μm×317.13 μm surface were obtained for each section. The total number of nuclei and nuclei positive for TUNEL were quantified with the Image J software (http://rsbweb.nih.gov/ij). Staining with propidium iodide (PI) was done for examining the nucleus morphology and discard false positives. […] Retinal degeneration correlated with a higher number of apoptotic cells (brightest labeling means TUNEL positive) observed in streptozotocin-induced diabetic rats (Group 2).
The increment in the percentage of apoptotic cells is significant in diabetic rats (Group 2). Topical ocular treatment with somatostatin (Group 3) or octreotide (Group 4) reduced the number of apoptotic cells till control levels (Group 1).

For `C[C@H](N)C(=O)NCC(=O)N[C@H]1CSSC[C@@H](C(=O)O)NC(=O)[C@H](CO)NC(=O)[C@H]([C@@H](C)O)NC(=O)[C@H](Cc2ccccc2)NC(=O)[C@H]([C@@H](C)O)NC(=O)[C@H](CCCCN)NC(=O)[C@H](Cc2c[nH]c3ccccc23)NC(=O)[C@H](Cc2ccccc2)NC(=O)[C@H](Cc2ccccc2)NC(=O)[C@H](CC(N)=O)NC(=O)[C@H](CCCCN)NC1=O` [somatostatin, somatostatin-14], the “amount of somatostatin in the retina” value [1] was “greater in the treated eye on both animals”, the “difference between the amplitude of the second OP (OP2) of the b-wave at 0 db” value (from here on “difference between the amplitude”) ([2]; Left eye (2 drops per day)) was 68.7 and the “implicit time of the b-wave at 0 db compared to pretreatment” value (“implicit time … compared to pretreatment” for short) ([2]; Left eye (2 drops per day)) was 4.9. For the same compound, the “difference between the amplitude” value ([2]; Right eye (1 drop per day)) was 44.8, the “implicit time … compared to pretreatment” value ([2]; Right eye (1 drop per day)) was 9.0 and the “b-wave amplitude at −10 db and 0 db” value [2] was “prevented the diminishment”. The “b-wave amplitude at −30 db” value [2] was “prevented the diminishment”, the “glial cell activation (GFAP expression, confocal images)” value [3] was “prevented glial cell activation” and the GFAP fluorescence value [3] was 2514±90. The “retinal degeneration (TUNEL positive cells, confocal images)” value [4] was “prevented retinal degeneration”, the “% Apoptotic cells GCL” value [4] was 14% and the “% Apoptotic cells INL” value [4] was 1%. The “% Apoptotic cells ONL” value [4] was 3% and the “% Apoptotic cells RPE” value [4] was 6%.

With `C[C@@H](O)[C@@H]1NC(=O)[C@H](CCCCN)NC(=O)[C@@H](Cc2c[nH]c3ccccc23)NC(=O)[C@H](Cc2ccccc2)NC(=O)[C@@H](NC(=O)[C@H](N)Cc2ccccc2)CSSC[C@@H](C(=O)N[C@H](CO)[C@@H](C)O)NC1=O` [octreotide] the “difference between the amplitude” value ([2]; Left eye (2 drops per day)) was 55.1, the “implicit time … compared to pretreatment” value ([2]; Left eye (2 drops per day)) was 1.1 and the “difference between the amplitude” value ([2]; Right eye (1 drop per day)) was 45.5. For the same compound, the “implicit time … compared to pretreatment” value ([2]; Right eye (1 drop per day)) was 8.8, the “b-wave amplitude at −10 db and 0 db” value [2] was “effective only at the highest dose” and the “b-wave amplitude at −30 db” value [2] was “prevented the diminishment”. For the same compound, the “glial cell activation (GFAP expression, confocal images)” value [3] was “prevented glial cell activation”, the GFAP fluorescence value [3] was 1696±48 and the “retinal degeneration (TUNEL positive cells, confocal images)” value [4] was “prevented retinal degeneration”. For the same compound, the “% Apoptotic cells GCL” value [4] was 7%, the “% Apoptotic cells INL” value [4] was 0.1% and the “% Apoptotic cells ONL” value [4] was 5%. The “% Apoptotic cells RPE” value [4] was 11%.
